Data on one molecule can be found in publication PMC7116157 (Nature chemical biology, 2019).

The target of this assay is T1, Cleavage and Polyadenylation Specificity Factor 3 (CPSF3) (Homo sapiens, UniProt Q9UKF6).
T1 sequence (Q9UKF6 1-459): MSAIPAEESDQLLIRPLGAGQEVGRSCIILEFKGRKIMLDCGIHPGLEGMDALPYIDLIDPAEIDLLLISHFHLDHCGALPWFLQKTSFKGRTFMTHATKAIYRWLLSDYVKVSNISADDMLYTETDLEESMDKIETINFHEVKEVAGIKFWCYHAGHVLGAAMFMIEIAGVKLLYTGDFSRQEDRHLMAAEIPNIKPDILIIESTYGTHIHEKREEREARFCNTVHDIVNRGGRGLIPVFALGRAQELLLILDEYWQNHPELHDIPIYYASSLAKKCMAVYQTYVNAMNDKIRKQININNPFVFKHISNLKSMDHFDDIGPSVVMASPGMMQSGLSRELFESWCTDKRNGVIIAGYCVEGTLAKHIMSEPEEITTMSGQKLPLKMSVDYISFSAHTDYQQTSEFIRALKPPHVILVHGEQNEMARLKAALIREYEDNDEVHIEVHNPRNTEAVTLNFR
Put plainly: […] Å co-crystal structure. Format: binding.

Each structure is given as a SMILES string.

Turning to `CN1CCN(CCOc2c(Cl)cc(C(=O)N[C@@H](Cc3ccccc3)C(=O)O)c(O)c2Cl)CC1` [compound 2], the Kd was found to be 370 nM.
